The values below come from US20150094345A1, “PHARMACEUTICAL FORMULATION HAVING IMPROVED STABILITY” (priority 2012, published 2015).

The data set is described as follows: 6-month stability study of the compositions (impurity concentrations). The class given is physicochemical.

`CCOC(=O)C1=C(COCCN)NC(C)=C(C(=O)OC)C1c1ccccc1Cl` (centres unmarked) [amlodipine besylate]: the “concentration of the main decomposition product of amlodipine besylate (European Pharmacopeia: Impurity D)” value (any storage condition, 6-month stability testing period, composition containing ramipril and amlodipine) is given as at most 0.05%. The “stability of amlodipine besylate in the combination dosage form” value (until the end of the six-month stability testing period) is on record as “remains stable”.
